Experimental data published in the NIST ThermoML archive (doi:10.1016/j.jct.2006.10.008).

Experiments:
[1] = xn = mol fraction of the nth substance listed; conditions: 298.15 K, 101 kPa, Liquid
[2] = excess molar enthalpy (molar enthalpy of mixing); xn = mol fraction of the nth substance listed; conditions: 298.15 K, 101 kPa, Liquid, Calvet calorimetry

ClCCCCCl [1,4-dichlorobutane] + CCCCOC=O
Conditions | excess molar enthalpy [kcal/mol] | mass density [kg/m3]
[1], x2 = 0.0624 | – | 1118.28
[1], x2 = 0.1208 | – | 1103.88
[1], x2 = 0.1776 | – | 1089.9
[1], x2 = 0.2372 | – | 1075.3
[1], x2 = 0.346 | – | 1048.8
[1], x2 = 0.4096 | – | 1033.38
[1], x2 = 0.4679 | – | 1019.27
[1], x2 = 0.5213 | – | 1006.41
[1], x2 = 0.6434 | – | 977.11
[1], x2 = 0.7039 | – | 962.64
[1], x2 = 0.7624 | – | 948.68
[1], x2 = 0.821 | – | 934.76
[1], x2 = 0.8802 | – | 920.71
[1], x2 = 0.9398 | – | 906.62
[2], x2 = 0.0614 | -0.00275 | –
[2], x2 = 0.1294 | -0.00724 | –
[2], x2 = 0.1998 | -0.0131 | –
[2], x2 = 0.2674 | -0.0218 | –
[2], x2 = 0.3309 | -0.0293 | –
[2], x2 = 0.3925 | -0.039 | –
[2], x2 = 0.4407 | -0.0473 | –
[2], x2 = 0.4897 | -0.0533 | –
[2], x2 = 0.5404 | -0.0542 | –
[2], x2 = 0.5969 | -0.0539 | –
[2], x2 = 0.6592 | -0.0513 | –
[2], x2 = 0.7249 | -0.0461 | –
[2], x2 = 0.795 | -0.0386 | –
[2], x2 = 0.8656 | -0.028 | –
[2], x2 = 0.9356 | -0.0149 | –

CCCCCOC=O [pentyl methanoate] + ClCCCCCl
Conditions | excess molar enthalpy [kcal/mol] | mass density [kg/m3]
[1], x1 = 0.0535 | – | 1118.26
[1], x1 = 0.1055 | – | 1103.42
[1], x1 = 0.1566 | – | 1089.12
[1], x1 = 0.2106 | – | 1074.27
[1], x1 = 0.2635 | – | 1060
[1], x1 = 0.3199 | – | 1045.06
[1], x1 = 0.3768 | – | 1030.28
[1], x1 = 0.4344 | – | 1015.59
[1], x1 = 0.4908 | – | 1001.46
[1], x1 = 0.5505 | – | 986.81
[1], x1 = 0.6109 | – | 972.26
[1], x1 = 0.6726 | – | 957.67
[1], x1 = 0.7351 | – | 943.19
[1], x1 = 0.7986 | – | 928.74
[1], x1 = 0.8646 | – | 914.02
[1], x1 = 0.9292 | – | 899.89
[2], x1 = 0.0558 | -0.00368 | –
[2], x1 = 0.1297 | -0.0102 | –
[2], x1 = 0.2099 | -0.0181 | –
[2], x1 = 0.2822 | -0.0275 | –
[2], x1 = 0.3497 | -0.0373 | –
[2], x1 = 0.4176 | -0.0442 | –
[2], x1 = 0.4615 | -0.0492 | –
[2], x1 = 0.4847 | -0.0503 | –
[2], x1 = 0.5352 | -0.0522 | –
[2], x1 = 0.5989 | -0.0512 | –
[2], x1 = 0.6703 | -0.0498 | –
[2], x1 = 0.7496 | -0.0436 | –
[2], x1 = 0.8354 | -0.0321 | –
[2], x1 = 0.9293 | -0.0167 | –

CCCOC=O [propyl methanoate] + ClCCCl
Conditions | excess molar enthalpy [kcal/mol] | mass density [kg/m3]
[1], x1 = 0.0538 | – | 1223.09
[1], x1 = 0.1017 | – | 1203.75
[1], x1 = 0.1515 | – | 1184.04
[1], x1 = 0.2043 | – | 1163.71
[1], x1 = 0.2575 | – | 1143.76
[1], x1 = 0.3685 | – | 1103.98
[1], x1 = 0.4248 | – | 1084.54
[1], x1 = 0.4826 | – | 1065.09
[1], x1 = 0.5426 | – | 1045.46
[1], x1 = 0.6034 | – | 1026.11
[1], x1 = 0.6652 | – | 1006.9
[1], x1 = 0.7294 | – | 987.38
[1], x1 = 0.794 | – | 968.29
[1], x1 = 0.8599 | – | 949.22
[1], x1 = 0.9286 | – | 929.85
[2], x1 = 0.0489 | -0.00894 | –
[2], x1 = 0.1034 | -0.0201 | –
[2], x1 = 0.1594 | -0.0337 | –
[2], x1 = 0.2211 | -0.0473 | –
[2], x1 = 0.28 | -0.0608 | –
[2], x1 = 0.3363 | -0.0734 | –
[2], x1 = 0.3886 | -0.0843 | –
[2], x1 = 0.4382 | -0.09338 | –
[2], x1 = 0.483 | -0.1003 | –
[2], x1 = 0.5155 | -0.104 | –
[2], x1 = 0.5716 | -0.1046 | –
[2], x1 = 0.6361 | -0.1004 | –
[2], x1 = 0.7083 | -0.08982 | –
[2], x1 = 0.7725 | -0.0749 | –
[2], x1 = 0.8488 | -0.0545 | –
[2], x1 = 0.9302 | -0.0292 | –

COC=O [methyl methanoate] + ClCCCl
Conditions | excess molar enthalpy [kcal/mol] | mass density [kg/m3]
[1], x1 = 0.0778 | – | 1227.3
[1], x1 = 0.1458 | – | 1211.22
[1], x1 = 0.2144 | – | 1194.43
[1], x1 = 0.2795 | – | 1177.71
[1], x1 = 0.3474 | – | 1160.37
[1], x1 = 0.4099 | – | 1143.76
[1], x1 = 0.4725 | – | 1126.96
[1], x1 = 0.5316 | – | 1110.73
[1], x1 = 0.5888 | – | 1094.68
[1], x1 = 0.6463 | – | 1077.99
[1], x1 = 0.6998 | – | 1062.25
[1], x1 = 0.753 | – | 1046.16
[1], x1 = 0.8045 | – | 1030.32
[1], x1 = 0.8548 | – | 1014.49
[1], x1 = 0.9043 | – | 998.6
[1], x1 = 0.9525 | – | 982.78
[2], x1 = 0.0754 | 0.00636 | –
[2], x1 = 0.1373 | 0.011 | –
[2], x1 = 0.1901 | 0.0152 | –
[2], x1 = 0.2508 | 0.019 | –
[2], x1 = 0.3109 | 0.0219 | –
[2], x1 = 0.3728 | 0.0238 | –
[2], x1 = 0.4325 | 0.0247 | –
[2], x1 = 0.4874 | 0.0246 | –
[2], x1 = 0.5372 | 0.024 | –
[2], x1 = 0.5928 | 0.0226 | –
[2], x1 = 0.6569 | 0.0206 | –
[2], x1 = 0.7322 | 0.0175 | –
[2], x1 = 0.8084 | 0.0138 | –
[2], x1 = 0.8844 | 0.00951 | –
[2], x1 = 0.9514 | 0.0049 | –

CCCOC=O [propyl methanoate] + ClCCCCCl
Conditions | excess molar enthalpy [kcal/mol] | mass density [kg/m3]
[1], x1 = 0.0695 | – | 1119.11
[1], x1 = 0.1347 | – | 1106.03
[1], x1 = 0.1987 | – | 1092.92
[1], x1 = 0.2624 | – | 1079.78
[1], x1 = 0.3279 | – | 1066.03
[1], x1 = 0.3884 | – | 1053.07
[1], x1 = 0.4509 | – | 1039.59
[1], x1 = 0.5061 | – | 1027.51
[1], x1 = 0.5671 | – | 1013.93
[1], x1 = 0.6204 | – | 1001.93
[1], x1 = 0.6808 | – | 988.13
[1], x1 = 0.7363 | – | 975.18
[1], x1 = 0.7901 | – | 962.5
[1], x1 = 0.8426 | – | 950.01
[1], x1 = 0.8965 | – | 936.97
[1], x1 = 0.9466 | – | 924.57
[2], x1 = 0.0711 | 0.00681 | –
[2], x1 = 0.1446 | 0.00982 | –
[2], x1 = 0.2182 | 0.0105 | –
[2], x1 = 0.2908 | 0.00652 | –
[2], x1 = 0.3554 | 0.00213 | –
[2], x1 = 0.4191 | -0.00306 | –
[2], x1 = 0.4755 | -0.007 | –
[2], x1 = 0.5267 | -0.0106 | –
[2], x1 = 0.5668 | -0.0133 | –
[2], x1 = 0.6196 | -0.0168 | –
[2], x1 = 0.681 | -0.0186 | –
[2], x1 = 0.7427 | -0.0172 | –
[2], x1 = 0.8085 | -0.0143 | –
[2], x1 = 0.875 | -0.00939 | –
[2], x1 = 0.939 | -0.00533 | –

CCCCCOC=O [pentyl methanoate] + ClCCCl
Conditions | excess molar enthalpy [kcal/mol] | mass density [kg/m3]
[1], x1 = 0.0396 | – | 1221.77
[1], x1 = 0.0779 | – | 1199.93
[1], x1 = 0.1181 | – | 1178.31
[1], x1 = 0.1601 | – | 1156.97
[1], x1 = 0.2047 | – | 1135.53
[1], x1 = 0.2505 | – | 1114.67
[1], x1 = 0.3008 | – | 1093.1
[1], x1 = 0.3529 | – | 1072.02
[1], x1 = 0.4074 | – | 1051.23
[1], x1 = 0.4655 | – | 1030.4
[1], x1 = 0.5288 | – | 1009.11
[1], x1 = 0.5948 | – | 988.32
[1], x1 = 0.6639 | – | 967.94
[1], x1 = 0.7399 | – | 946.95
[1], x1 = 0.8201 | – | 926.19
[1], x1 = 0.906 | – | 905.54
[2], x1 = 0.0406 | -0.0082 | –
[2], x1 = 0.0934 | -0.0198 | –
[2], x1 = 0.1501 | -0.0337 | –
[2], x1 = 0.2054 | -0.0459 | –
[2], x1 = 0.2613 | -0.0583 | –
[2], x1 = 0.3157 | -0.0674 | –
[2], x1 = 0.3653 | -0.0765 | –
[2], x1 = 0.4153 | -0.08382 | –
[2], x1 = 0.4604 | -0.08886 | –
[2], x1 = 0.5014 | -0.09156 | –
[2], x1 = 0.5593 | -0.0925 | –
[2], x1 = 0.6338 | -0.08788 | –
[2], x1 = 0.7235 | -0.075 | –
[2], x1 = 0.8158 | -0.055 | –
[2], x1 = 0.9141 | -0.0302 | –
